These results are taken from US11173151B2, “Substituted triazole derivatives and uses thereof” (BAYER AKTIENGESELLSCHAFT, priority 2017, dated 2021).

For one assay, the target named is T1, human V1a receptor (Homo sapiens, UniProt P37288).
T1 construct: expressed in transfected cells; host or cells: CHO K1 (ATCC), also stably transfected with a modified aequorin
The experiment in a line: Cellular in vitro assay for determining vasopressin receptor activity, V1a receptor cell line (CHO, aequorin luminescence). The class given is cell-based. The note with it: for IC50: CHO cell line transfected with human V1a receptor, [Arg]-vasopressin at EC50 concentration, read-out: IC50 hV1a; for ratio IC50 hV2/hV1a: selectivity ratio IC50 hV2 / IC50 hV1a. The method, boiled down:
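IC50 from inhibition of [Arg]-vasopressin (EC50 concentration)-evoked aequorin luminescence in CHO K1 cells, with 10-min compound pretreatment.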

A further assay deals with T2, human V2 receptor (Homo sapiens, UniProt P30518).
T2 construct: expressed in transfected cells; host or cells: CHO K1 (ATCC) expressing firefly luciferase under a CRE-responsive promoter
Nature of the assay: Cellular in vitro assay for determining vasopressin receptor activity, V2 receptor cell line (CHO, CRE-luciferase). The class given is cell-based. The note with it: CHO cell line transfected with human V2 receptor; [Arg8]-vasopressin at EC50 concentration, 3 hours; read-out: IC50 hV2.

T1 sequence (P37288 whole entry): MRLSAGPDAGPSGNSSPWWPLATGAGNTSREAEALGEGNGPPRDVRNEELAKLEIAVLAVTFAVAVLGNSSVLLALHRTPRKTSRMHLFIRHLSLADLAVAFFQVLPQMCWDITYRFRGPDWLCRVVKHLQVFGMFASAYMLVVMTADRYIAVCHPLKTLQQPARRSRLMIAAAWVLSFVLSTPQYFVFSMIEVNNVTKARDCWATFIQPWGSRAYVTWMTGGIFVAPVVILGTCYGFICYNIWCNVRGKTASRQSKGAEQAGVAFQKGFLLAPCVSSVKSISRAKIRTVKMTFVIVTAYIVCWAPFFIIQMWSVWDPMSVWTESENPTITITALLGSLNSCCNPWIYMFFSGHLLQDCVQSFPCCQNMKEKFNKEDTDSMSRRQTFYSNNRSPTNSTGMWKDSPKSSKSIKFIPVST
T2 sequence (P30518 whole entry): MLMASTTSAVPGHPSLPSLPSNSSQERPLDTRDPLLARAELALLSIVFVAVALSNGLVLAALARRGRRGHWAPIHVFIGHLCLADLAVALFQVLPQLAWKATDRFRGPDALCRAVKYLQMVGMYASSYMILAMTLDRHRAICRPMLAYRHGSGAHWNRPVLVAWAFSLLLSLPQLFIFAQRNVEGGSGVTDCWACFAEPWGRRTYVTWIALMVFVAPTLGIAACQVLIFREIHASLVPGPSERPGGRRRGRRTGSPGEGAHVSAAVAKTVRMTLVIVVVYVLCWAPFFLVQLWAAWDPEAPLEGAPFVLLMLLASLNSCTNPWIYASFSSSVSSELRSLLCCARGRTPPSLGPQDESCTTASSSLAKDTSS

What is called IC50 is the concentration at which inhibition is half-maximal. For `O=C(NCc1cc(F)ccc1F)c1ccccc1-n1cnc(Cn2nc(-c3ccc(Cl)cc3)n(C[C@H](O)C(F)(F)F)c2=O)n1` [Example 207, 2-[3-({3-(4-chlorophenyl)-5-oxo-4-[(2S)-3,3,3-trifluoro-2-hydroxypropyl]-4,5-dihydro-1H-1,2,4-triazol-1-yl}methyl)-1H-1,2,4-triazol-1-yl]-N-(2,5-difluorobenzyl)benzamide], at human V1a receptor, the IC50 turned out to be 5.35 nM and the “ratio IC50 hV2/hV1a” value came out at 57.0. Further, the IC50 on human V2 receptor came to 305 nM.

Take `Cc1ccc(CNC(=O)c2ccccc2-n2cnc(Cn3nc(-c4ccc(Cl)cc4)n(C[C@H](O)C(F)(F)F)c3=O)n2)o1` [Example 209, 2-[3-({3-(4-Chlorophenyl)-5-oxo-4-[(2S)-3,3,3-trifluoro-2-hydroxypropyl]-4,5-dihydro-1H-1,2,4-triazol-1-yl}methyl)-1H-1,2,4-triazol-1-yl]-N-[(5-methylfuran-2-yl)methyl]benzamide]: on human V1a receptor, the IC50 was determined as 5.65 nM and the “ratio IC50 hV2/hV1a” value worked out at 23.0. Besides, the IC50 at human V2 receptor was 130 nM.

As for `Cn1nccc1NC(=O)c1ccccc1-n1cnc(Cn2nc(-c3ccc(Cl)cc3)n(C[C@H](O)C(F)(F)F)c2=O)n1` [Example 210, 2-[3-({3-(4-Chlorophenyl)-5-oxo-4-[(2S)-3,3,3-trifluoro-2-hydroxypropyl]-4,5-dihydro-1H-1,2,4-triazol-1-yl}methyl)-1H-1,2,4-triazol-1-yl]-N-(1-methyl-1H-pyrazol-5-yl)benzamide], at human V1a receptor, the IC50 is 1.65 nM and the “ratio IC50 hV2/hV1a” value was 457.6. Further, the IC50 on human V2 receptor was found to be 755 nM.

For `O=C(Nc1ccc(F)cn1)c1ccccc1-n1cnc(Cn2nc(-c3ccc(Cl)cc3)n(C[C@H](O)C(F)(F)F)c2=O)n1` [Example 211, 2-[3-({3-(4-Chlorophenyl)-5-oxo-4-[(2S)-3,3,3-trifluoro-2-hydroxypropyl]-4,5-dihydro-1H-1,2,4-triazol-1-yl}methyl)-1H-1,2,4-triazol-1-yl]-N-(5-fluoropyridin-2-yl)benzamide], the IC50 on human V1a receptor was 6.65 nM; on human V2 receptor, 170 nM. In addition, the “ratio IC50 hV2/hV1a” value on human V1a receptor was 25.6.

With `O=C(Nc1cc(O)[nH]n1)c1ccccc1-n1cnc(Cn2nc(-c3ccc(Cl)cc3)n(C[C@H](O)C(F)(F)F)c2=O)n1` [Example 212, 2-[3-({3-(4-Chlorophenyl)-5-oxo-4-[(2S)-3,3,3-trifluoro-2-hydroxypropyl]-4,5-dihydro-1H-1,2,4-triazol-1-yl}methyl)-1H-1,2,4-triazol-1-yl]-N-(5-hydroxy-1H-pyrazol-3-yl)benzamide], on human V1a receptor, the IC50 is 23.5 nM and the “ratio IC50 hV2/hV1a” value was 24.5. Also, the IC50 at human V2 receptor stood at 575 nM.

For `Cc1cc(NC(=O)c2ccccc2-n2cnc(Cn3nc(-c4ccc(Cl)cc4)n(C[C@H](O)C(F)(F)F)c3=O)n2)n(C)n1` [Example 213, 2-[3-({3-(4-Chlorophenyl)-5-oxo-4-[(2S)-3,3,3-trifluoro-2-hydroxypropyl]-4,5-dihydro-1H-1,2,4-triazol-1-yl}methyl)-1H-1,2,4-triazol-1-yl]-N-(1,3-dimethyl-1H-pyrazol-5-yl)benzamide], at human V1a receptor, the IC50 was determined as 7.55 nM and the “ratio IC50 hV2/hV1a” value came to 178.1. In addition, at human V2 receptor, the IC50 was found to be 1340 nM.

Consider `Cc1n[nH]c(C)c1NC(=O)c1ccccc1-n1cnc(Cn2nc(-c3ccc(Cl)cc3)n(C[C@H](O)C(F)(F)F)c2=O)n1` [Example 214, 2-[3-({3-(4-Chlorophenyl)-5-oxo-4-[(2S)-3,3,3-trifluoro-2-hydroxypropyl]-4,5-dihydro-1H-1,2,4-triazol-1-yl}methyl)-1H-1,2,4-triazol-1-yl]-N-(3,5-dimethyl-1H-pyrazol-4-yl)benzamide], for which, on human V1a receptor, the IC50 is 1.65 nM and the “ratio IC50 hV2/hV1a” value is listed as 854.5. Moreover, the IC50 at human V2 receptor is 1410 nM.

Consider `CCn1nccc1NC(=O)c1ccccc1-n1cnc(Cn2nc(-c3ccc(Cl)cc3)n(C[C@H](O)C(F)(F)F)c2=O)n1` [Example 215, 2-[3-({3-(4-Chlorophenyl)-5-oxo-4-[(2S)-3,3,3-trifluoro-2-hydroxypropyl]-4,5-dihydro-1H-1,2,4-triazol-1-yl}methyl)-1H-1,2,4-triazol-1-yl]-N-(1-ethyl-1H-pyrazol-5-yl)benzamide], for which the IC50 came out at 11.7 nM at human V1a receptor and 1200 nM at human V2 receptor. The “ratio IC50 hV2/hV1a” value at human V1a receptor amounted to 102.1.

Consider `CC(NC(=O)c1ccccc1-n1cnc(Cn2nc(-c3ccc(Cl)cc3)n(C[C@H](O)C(F)(F)F)c2=O)n1)c1ccon1` (stereo partly drawn) [Example 216, 2-[3-({3-(4-Chlorophenyl)-5-oxo-4-[(2S)-3,3,3-trifluoro-2-hydroxypropyl]-4,5-dihydro-1H-1,2,4-triazol-1-yl}methyl)-1H-1,2,4-triazol-1-yl]-N-[1-(1,2-oxazol-3-yl)ethyl]benzamide], for which, at human V1a receptor, the IC50 came out at 12 nM and the “ratio IC50 hV2/hV1a” value amounted to 14.2. Moreover, on human V2 receptor, the IC50 stood at 170 nM.

As for `O=C(Nc1ccc(F)cc1O)c1ccccc1-n1cnc(Cn2nc(-c3ccc(Cl)cc3)n(C[C@H](O)C(F)(F)F)c2=O)n1` [Example 217, 2-[3-({3-(4-Chlorophenyl)-5-oxo-4-[(2S)-3,3,3-trifluoro-2-hydroxypropyl]-4,5-dihydro-1H-1,2,4-triazol-1-yl}methyl)-1H-1,2,4-triazol-1-yl]-N-(4-fluoro-2-hydroxyphenyl)benzamide], the IC50 at human V1a receptor stood at 3.95 nM; at human V2 receptor it was 93.5 nM. In addition, on human V1a receptor, the “ratio IC50 hV2/hV1a” value stood at 23.7.

For the compound `O=C(Nc1n[nH]cc1Cl)c1ccccc1-n1cnc(Cn2nc(-c3ccc(Cl)cc3)n(C[C@H](O)C(F)(F)F)c2=O)n1` [Example 218, 2-[3-({3-(4-Chlorophenyl)-5-oxo-4-[(2S)-3,3,3-trifluoro-2-hydroxypropyl]-4,5-dihydro-1H-1,2,4-triazol-1-yl}methyl)-1H-1,2,4-triazol-1-yl]-N-(4-chloro-1H-pyrazol-3-yl)benzamide], on human V1a receptor, the IC50 is 0.32 nM and the “ratio IC50 hV2/hV1a” value is given as 24.4. Further, the IC50 on human V2 receptor was 7.8 nM.

On to `O=C(Nc1cccc[n+]1[O-])c1ccccc1-n1cnc(Cn2nc(-c3ccc(Cl)cc3)n(C[C@H](O)C(F)(F)F)c2=O)n1` [Example 219, 2-[3-({3-(4-Chlorophenyl)-5-oxo-4-[(2S)-3,3,3-trifluoro-2-hydroxypropyl]-4,5-dihydro-1H-1,2,4-triazol-1-yl}methyl)-1H-1,2,4-triazol-1-yl]-N-(1-oxidopyridin-2-yl)benzamide], for which the results for the IC50 on human V1a receptor and on human V2 receptor were 21 nM and 41.5 nM, respectively. The “ratio IC50 hV2/hV1a” value at human V1a receptor is recorded as 2.0.

In the case of `Cc1cncc(NC(=O)c2ccccc2-n2cnc(Cn3nc(-c4ccc(Cl)cc4)n(C[C@H](O)C(F)(F)F)c3=O)n2)c1` [Example 220, 2-[3-({3-(4-Chlorophenyl)-5-oxo-4-[(2S)-3,3,3-trifluoro-2-hydroxypropyl]-4,5-dihydro-1H-1,2,4-triazol-1-yl}methyl)-1H-1,2,4-triazol-1-yl]-N-(5-methylpyridin-3-yl)benzamide], the results for the IC50 at human V1a receptor and on human V2 receptor were 3.65 nM and 215 nM, respectively. At human V1a receptor, the “ratio IC50 hV2/hV1a” value was found to be 58.9.

For the compound `Cc1ncccc1NC(=O)c1ccccc1-n1cnc(Cn2nc(-c3ccc(Cl)cc3)n(C[C@H](O)C(F)(F)F)c2=O)n1` [Example 221, 2-[3-({3-(4-Chlorophenyl)-5-oxo-4-[(2S)-3,3,3-trifluoro-2-hydroxypropyl]-4,5-dihydro-1H-1,2,4-triazol-1-yl}methyl)-1H-1,2,4-triazol-1-yl]-N-(2-methylpyridin-3-yl)benzamide], on human V1a receptor, the IC50 worked out at 4.95 nM and the “ratio IC50 hV2/hV1a” value is 92.9. Also, the IC50 on human V2 receptor was found to be 460 nM.

Take `CC1CCC(C)C1NC(=O)c1ccccc1-n1cnc(Cn2nc(-c3ccc(Cl)cc3)n(C[C@H](O)C(F)(F)F)c2=O)n1` (stereo partly drawn) [Example 222, 2-[3-({3-(4-Chlorophenyl)-5-oxo-4-[(2S)-3,3,3-trifluoro-2-hydroxypropyl]-4,5-dihydro-1H-1,2,4-triazol-1-yl}methyl)-1H-1,2,4-triazol-1-yl]-N-(2,5-dimethylcyclopentyl)benzamide]: the IC50 at human V1a receptor worked out at 4.85 nM; at human V2 receptor, 185 nM. In addition, at human V1a receptor, the “ratio IC50 hV2/hV1a” value was determined as 38.1.

For the compound `O=C(Nc1nccs1)c1ccccc1-n1cnc(Cn2nc(-c3ccc(Cl)cc3)n(C[C@H](O)C(F)(F)F)c2=O)n1` [Example 223, 2-[3-({3-(4-Chlorophenyl)-5-oxo-4-[(2S)-3,3,3-trifluoro-2-hydroxypropyl]-4,5-dihydro-1H-1,2,4-triazol-1-yl}methyl)-1H-1,2,4-triazol-1-yl]-N-(1,3-thiazol-2-yl)benzamide], on human V1a receptor, the IC50 amounted to 1.5 nM and the “ratio IC50 hV2/hV1a” value was found to be 0.8. For the same compound, the IC50 on human V2 receptor is 1.15 nM.

`NC(=O)CNC(=O)c1ccccc1-n1cnc(Cn2nc(-c3ccc(Cl)cc3)n(C[C@H](O)C(F)(F)F)c2=O)n1` [Example 225, N-(2-Amino-2-oxoethyl)-2-[3-({3-(4-chlorophenyl)-5-oxo-4-[(2S)-3,3,3-trifluoro-2-hydroxypropyl]-4,5-dihydro-1H-1,2,4-triazol-1-yl}methyl)-1H-1,2,4-triazol-1-yl]benzamide]: the figures for the IC50 on human V1a receptor and on human V2 receptor were 5.5 nM and 210 nM, respectively. Moreover, the “ratio IC50 hV2/hV1a” value on human V1a receptor was determined as 38.2.

Regarding `O=C(Nc1ccc(Cl)nc1)c1ccccc1-n1cnc(Cn2nc(-c3ccc(Cl)cc3)n(C[C@H](O)C(F)(F)F)c2=O)n1` [Example 226, 2-[3-({3-(4-Chlorophenyl)-5-oxo-4-[(2S)-3,3,3-trifluoro-2-hydroxypropyl]-4,5-dihydro-1H-1,2,4-triazol-1-yl}methyl)-1H-1,2,4-triazol-1-yl]-N-(6-chloropyridin-3-yl)benzamide], at human V1a receptor, the IC50 is 1.3 nM and the “ratio IC50 hV2/hV1a” value is recorded as 5.7. Besides, on human V2 receptor, the IC50 turned out to be 7.45 nM.
